Data on twelve compounds can be found in patent US9499550B2 (BRISTOL-MYERS SQUIBB COMPANY, priority 2012, dated 2016).

For orientation: EC50 means the concentration at which the effect is half-maximal.

Where only a bound is given, the exact number is not on record here.

Assay [1] concerns HCV genotype 1b (Con1) replicon in HUH-7 cells. The assay can be described thus: HCV replicon luciferase reporter assay, genotype 1b. Particulars: Hepatitis C virus, Huh-7, 72 h, HCV genotype 1b replicon luciferase assay, 3 days incubation, range class, read-out: LE_1b (EC50, range). In kind it is cell-based. A digest of the protocol: (§1)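 Replicon inhibition for both genotypes was measured as Renilla luciferase signal (EnduRen, 7.5 μM final, 2 h) after 3-day, 37° C exposure of replicon-bearing HUH-7 cells in 4% FCS DMEM, 0.5% DMSO. The 1b construct carries S1179I; the 1a H77 construct carries P1496L and S2204I. Twenty-point, 3-fold dilutions were fitted four-parametrically for EC50, and CC50 was taken from multiplexed Cell Titer-Blue.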
For orientation: In antiviral work, replicon cells carry a viral genome segment that copies itself.

Assay [2] relates to HCV genotype 1a (H77 strain) replicon in HUH-7 cells. As to the kind of experiment: HCV replicon luciferase reporter assay, genotype 1a. Format: cell-based. Particulars: Hepatitis C virus, Huh-7, 72 h, HCV genotype 1a replicon luciferase assay, 3 days incubation, range class, read-out: LE_1a (EC50, range). A digest of the protocol: as §1

For the compound `COc1cnc(O[C@@H]2C[C@H]3C(=O)N[C@]4(C(=O)NS(=O)(=O)C5(CF)CC5)C[C@H]4/C=C\CC[C@H](C)C[C@@H](C)[C@H](NC(=O)OC4(C(F)(F)F)CCCOC4)C(=O)N3C2)c2ccccc12` (stereo partly drawn) [Compound 1057, 3-(trifluoromethyl)tetrahydro-2H-pyran-3-yl((2R,6S,7R,9S,13aS,14aR,16aS,Z)-14a-(((1-(fluoromethyl)cyclopropyl)sulfonyl)carbamoyl)-2-((4-methoxyisoquinolin-1-yl)oxy)-7,9-dimethyl-5,16-dioxo-1,2,3,5,6,7,8,9,10,11,13a,14,14a,15,16,16a-hexadecahydrocyclopropa[e]pyrrolo[1,2-a][1,4]diazacyclopentadecin-6-yl)carbamate], the EC50 in assay [1] and in assay [2] was less than 5.46 nM throughout.

As to `COc1cnc(O[C@@H]2C[C@H]3C(=O)N[C@]4(C(=O)NS(=O)(=O)C5(CF)CC5)C[C@H]4/C=C\CC[C@@H](C)C[C@@H](C)[C@H](NC(=O)OC4(C(F)(F)F)CCCOC4)C(=O)N3C2)c2ccccc12` (stereo partly drawn) [Compound 1058, 3-(trifluoromethyl)tetrahydro-2H-pyran-3-yl((2R,6S,7R,9R,13aS,14aR,16aS,Z)-14a-(((1-(fluoromethyl)cyclopropyl)sulfonyl)carbamoyl)-2-((4-methoxyisoquinolin-1-yl)oxy)-7,9-dimethyl-5,16-dioxo-1,2,3,5,6,7,8,9,10,11,13a,14,14a,15,16,16a-hexadecahydrocyclopropa[e]pyrrolo[1,2-a][1,4]diazacyclopentadecin-6-yl)carbamate], the EC50 in assay [1] and in assay [2] was less than 5.46 nM each time.

Regarding `COc1cnc(O[C@@H]2C[C@H]3C(=O)N[C@]4(C(=O)NS(=O)(=O)C5(CF)CC5)C[C@H]4/C=C\CC[C@H](C)C[C@@H](C)[C@H](NC(=O)OC4(C5CC5)COC4)C(=O)N3C2)c2ccccc12` [Compound 1059, 3-cyclopropyloxetan-3-yl((2R,6S,7R,9S,13aS,14aR,16aS,Z)-14a-(((1-(fluoromethyl)cyclopropyl)sulfonyl)carbamoyl)-2-((4-methoxyisoquinolin-1-yl)oxy)-7,9-dimethyl-5,16-dioxo-1,2,3,5,6,7,8,9,10,11,13a,14,14a,15,16,16a-hexadecahydrocyclopropa[e]pyrrolo[1,2-a][1,4]diazacyclopentadecin-6-yl)carbamate], the EC50 in assay [1] and in assay [2] was 4.82 to 103 nM in each case.

For the compound `COc1cnc(O[C@@H]2C[C@H]3C(=O)N[C@]4(C(=O)NS(=O)(=O)C5(CF)CC5)C[C@H]4/C=C\CC[C@@H](C)C[C@@H](C)[C@H](NC(=O)OC4(C5CC5)COC4)C(=O)N3C2)c2ccccc12` [Compound 1060, 3-cyclopropyloxetan-3-yl((2R,6S,7R,9R,13aS,14aR,16aS,Z)-14a-(((1-(fluoromethyl)cyclopropyl)sulfonyl)carbamoyl)-2-((4-methoxyisoquinolin-1-yl)oxy)-7,9-dimethyl-5,16-dioxo-1,2,3,5,6,7,8,9,10,11,13a,14,14a,15,16,16a-hexadecahydrocyclopropa[e]pyrrolo[1,2-a][1,4]diazacyclopentadecin-6-yl)carbamate], the EC50 in assay [1] and in assay [2] was less than 5.46 nM each time.

Turning to `COc1cnc(O[C@@H]2C[C@H]3C(=O)N[C@]4(C(=O)NS(=O)(=O)C5(CF)CC5)C[C@H]4/C=C\CC[C@H](C)C[C@@H](C)[C@H](NC(=O)OC(C)(C)CC(F)(F)F)C(=O)N3C2)c2ccccc12` [Compound 1061, 4,4,4-trifluoro-2-methylbutan-2-yl((2R,6S,7R,9S,13aS,14aR,16aS,Z)-14a-(((1-(fluoromethyl)cyclopropyl)sulfonyl)carbamoyl)-2-((4-methoxyisoquinolin-1-yl)oxy)-7,9-dimethyl-5,16-dioxo-1,2,3,5,6,7,8,9,10,11,13a,14,14a,15,16,16a-hexadecahydrocyclopropa[e]pyrrolo[1,2-a][1,4]diazacyclopentadecin-6-yl)carbamate], the EC50 in assay [1] and in assay [2] was 4.82 to 103 nM each time.

`COc1cnc(O[C@@H]2C[C@H]3C(=O)N[C@]4(C(=O)NS(=O)(=O)C5(CF)CC5)C[C@H]4/C=C\CC[C@@H](C)C[C@@H](C)[C@H](NC(=O)OC(C)(C)CC(F)(F)F)C(=O)N3C2)c2ccccc12` [Compound 1062, 4,4,4-trifluoro-2-methylbutan-2-yl((2R,6S,7R,9R,13aS,14aR,16aS,Z)-14a-(((1-(fluoromethyl)cyclopropyl)sulfonyl)carbamoyl)-2-((4-methoxyisoquinolin-1-yl)oxy)-7,9-dimethyl-5,16-dioxo-1,2,3,5,6,7,8,9,10,11,13a,14,14a,15,16,16a-hexadecahydrocyclopropa[e]pyrrolo[1,2-a][1,4]diazacyclopentadecin-6-yl)carbamate]: the EC50 in assay [1] and in assay [2] was less than 5.46 nM throughout.

As for `COc1cnc(O[C@@H]2C[C@H]3C(=O)N[C@]4(C(=O)NS(=O)(=O)C5(CF)CC5)C[C@H]4/C=C\CC[C@H](C)C[C@@H](C)[C@H](NC(=O)OC4(C)CCOC4)C(=O)N3C2)c2ccccc12` (stereo partly drawn) [Compound 1063, 3-methyltetrahydrofuran-3-yl ((2R,6S,7R,9S,13aS,14aR,16aS,Z)-14a-(((1-(fluoromethyl)cyclopropyl)sulfonyl)carbamoyl)-2-((4-methoxyisoquinolin-1-yl)oxy)-7,9-dimethyl-5,16-dioxo-1,2,3,5,6,7,8,9,10,11,13a,14,14a,15,16,16a-hexadecahydrocyclopropa[e]pyrrolo[1,2-a][1,4]diazacyclopentadecin-6-yl)carbamate], the EC50 in assay [1] is less than 5.46 nM; in assay [2] it was 4.82 to 103 nM.

Regarding `COc1cnc(O[C@@H]2C[C@H]3C(=O)N[C@]4(C(=O)NS(=O)(=O)C5(CF)CC5)C[C@H]4/C=C\CC[C@@H](C)C[C@@H](C)[C@H](NC(=O)OC4(C)CCOC4)C(=O)N3C2)c2ccccc12` (stereo partly drawn) [Compound 1064, 3-methyltetrahydrofuran-3-yl ((2R,6S,7R,9R,13aS,14aR,16aS,Z)-14a-(((1-(fluoromethyl)cyclopropyl)sulfonyl)carbamoyl)-2-((4-methoxyisoquinolin-1-yl)oxy)-7,9-dimethyl-5,16-dioxo-1,2,3,5,6,7,8,9,10,11,13a,14,14a,15,16,16a-hexadecahydrocyclopropa[e]pyrrolo[1,2-a][1,4]diazacyclopentadecin-6-yl)carbamate], the EC50 in assay [1] and in assay [2] was less than 5.46 nM throughout.

Consider `COc1cnc(O[C@@H]2C[C@H]3C(=O)N[C@]4(C(=O)NS(=O)(=O)C5(CF)CC5)C[C@H]4/C=C\CC[C@H](C)C[C@@H](C)[C@H](NC(=O)OC4(C(F)(F)F)CCOC4)C(=O)N3C2)c2ccccc12` (stereo partly drawn) [Compound 1065, 3-(trifluoromethyl)tetrahydrofuran-3-yl((2R,6S,7R,9S,13aS,14aR,16aS,Z)-14a-(((1-(fluoromethyl)cyclopropyl)sulfonyl)carbamoyl)-2-((4-methoxyisoquinolin-1-yl)oxy)-7,9-dimethyl-5,16-dioxo-1,2,3,5,6,7,8,9,10,11,13a,14,14a,15,16,16a-hexadecahydrocyclopropa[e]pyrrolo[1,2-a][1,4]diazacyclopentadecin-6-yl)carbamate], for which the EC50 in assay [1] is less than 5.46 nM; in assay [2], 4.82 to 103 nM.

Consider `COc1cnc(O[C@@H]2C[C@H]3C(=O)N[C@]4(C(=O)NS(=O)(=O)C5(CF)CC5)C[C@H]4/C=C\CC[C@@H](C)C[C@@H](C)[C@H](NC(=O)OC4(C(F)(F)F)CCOC4)C(=O)N3C2)c2ccccc12` (stereo partly drawn) [Compound 1066, 3-(trifluoromethyl)tetrahydrofuran-3-yl((2R,6S,7R,9R,13aS,14aR,16aS,Z)-14a-(((1-(fluoromethyl)cyclopropyl)sulfonyl)carbamoyl)-2-((4-methoxyisoquinolin-1-yl)oxy)-7,9-dimethyl-5,16-dioxo-1,2,3,5,6,7,8,9,10,11,13a,14,14a,15,16,16a-hexadecahydrocyclopropa[e]pyrrolo[1,2-a][1,4]diazacyclopentadecin-6-yl)carbamate], for which the EC50 in assay [1] and in assay [2] was less than 5.46 nM throughout.

For `COc1ccc2c(O[C@@H]3C[C@H]4C(=O)N[C@]5(C(=O)NS(=O)(=O)C6CC6)C[C@H]5/C=C\CC[C@H](C)C[C@@H](C)[C@H](NC(=O)OC(C)(C)C)C(=O)N4C3)nccc2c1` [Compound 1067, tert-butyl ((2R,6S,7R,9S,13aS,14aR,16aS,Z)-14a-((cyclopropylsulfonyl)carbamoyl)-2-((6-methoxyisoquinolin-1-yl)oxy)-7,9-dimethyl-5,16-dioxo-1,2,3,5,6,7,8,9,10,11,13a,14,14a,15,16,16a-hexadecahydrocyclopropa[e]pyrrolo[1,2-a][1,4]diazacyclopentadecin-6-yl)carbamate], the EC50 in assay [1] and in assay [2] was less than 5.46 nM in each case.

Consider `COc1ccc2c(O[C@@H]3C[C@H]4C(=O)N[C@]5(C(=O)NS(=O)(=O)C6CC6)C[C@H]5/C=C\CC[C@@H](C)C[C@@H](C)[C@H](NC(=O)OC(C)(C)C)C(=O)N4C3)nccc2c1` [Compound 1068, tert-butyl ((2R,6S,7R,9R,13aS,14aR,16aS,Z)-14a-((cyclopropylsulfonyl)carbamoyl)-2-((6-methoxyisoquinolin-1-yl)oxy)-7,9-dimethyl-5,16-dioxo-1,2,3,5,6,7,8,9,10,11,13a,14,14a,15,16,16a-hexadecahydrocyclopropa[e]pyrrolo[1,2-a][1,4]diazacyclopentadecin-6-yl)carbamate], for which the EC50 in assay [1] and in assay [2] was less than 5.46 nM throughout.
